Measured values published in ChEMBL document CHEMBL3046704, “Control of Muhlenbergia frondosa (wirestem muhly) with post-emergence sulfonylurea herbicides in maize (Zea mays)” (Crop Prot, 2007).

Key:
Muhlenbergia [1] = test: Post-emergence herbicidal activity against Muhlenbergia frondosa assessed as reduction in density at 35 g a.i./ha measured after 56 days in presence of 28% UAN relative to untreated-control; assay type: functional; parameters: scale not given: the % may be the effect or the level left
Muhlenbergia [2] = test: Post-emergence herbicidal activity against Muhlenbergia frondosa assessed as increase in maize yield at 35 g a.i./ha in presence of 28% UAN relative to untreated-control; assay type: functional
Zea mays [3] = test: Phytotoxicity against Zea mays (maize) crop assessed as crop injury at 35 g a.i./ha measured after 7 days in presence of 28% UAN relative to control; assay type: organism-based; settings: in vivo, 168 h
Muhlenbergia [4] = test: Post-emergence herbicidal activity against Muhlenbergia frondosa assessed as reduction in dry weight at 35 g a.i./ha measured after 56 days in presence of 28% UAN relative to untreated-control; assay type: functional; parameters: scale not given: the % may be the effect or the level left
Muhlenbergia [5] = test: Post-emergence herbicidal activity against Muhlenbergia frondosa at 35 g a.i./ha measured after 28 days in presence of 28% UAN relative to untreated-control; assay type: functional
Muhlenbergia [6] = test: Post-emergence herbicidal activity against Muhlenbergia frondosa at 35 g a.i./ha measured after 56 days in presence of 28% UAN relative to untreated-control; assay type: functional
Muhlenbergia [7] = test: Post-emergence herbicidal activity against Muhlenbergia frondosa at 15 g a.i./ha measured after 28 days in presence of Agral 90 relative to untreated-control; assay type: functional
Elymus repens [8] = test: Post-emergence herbicidal activity against Elymus repens (couch grass) relative to control; assay type: functional
Muhlenbergia [9] = test: Post-emergence herbicidal activity against Muhlenbergia frondosa assessed as number of plants at 15 g a.i./ha measured after 56 days in presence of Agral 90 (reference value: 41 /m2); assay type: functional
Muhlenbergia [10] = test: Post-emergence herbicidal activity against Muhlenbergia frondosa at 15 g a.i./ha measured after 56 days in presence of Agral 90 relative to untreated-control; assay type: functional
Muhlenbergia [11] = test: Post-emergence herbicidal activity against Muhlenbergia frondosa assessed as dry weight at 15 g a.i./ha measured after 56 days in presence of Agral 90 (reference value: 102 g); assay type: functional
Zea mays [12] = test: Phytotoxicity against Zea mays (maize) crop assessed as crop injury at 15 g a.i./ha measured after 7 days in presence of Agral 90 relative to control; assay type: organism-based; settings: in vivo, 168 h
Muhlenbergia [13] = test: Post-emergence herbicidal activity against Muhlenbergia frondosa assessed as increase in maize yield at 15 g a.i./ha in presence of Agral 90 relative to untreated-control; assay type: functional
Zea mays [14] = test: Phytotoxicity against Zea mays (maize) crop assessed as crop injury at 25 g a.i./ha measured after 7 days in presence of Agral 90 relative to control; assay type: organism-based; settings: in vivo, 168 h
Muhlenbergia [15] = test: Post-emergence herbicidal activity against Muhlenbergia frondosa at 25 g a.i./ha measured after 28 days in presence of Agral 90 relative to untreated-control; assay type: functional
Muhlenbergia [16] = test: Post-emergence herbicidal activity against Muhlenbergia frondosa assessed as reduction in density at 25 g a.i./ha measured after 56 days in presence of Agral 90 relative to untreated-control; assay type: functional; parameters: scale not given: the % may be the effect or the level left
Muhlenbergia [17] = test: Post-emergence herbicidal activity against Muhlenbergia frondosa at 25 g a.i./ha measured after 56 days in presence of Agral 90 relative to untreated-control; assay type: functional
Muhlenbergia [18] = test: Post-emergence herbicidal activity against Muhlenbergia frondosa assessed as increase in maize yield at 25 g a.i./ha in presence of Agral 90 relative to untreated-control; assay type: functional
Elymus repens [19] = test: Post-emergence herbicidal activity against Elymus repens (couch grass) at 35 g/ha relative to control; assay type: functional
Muhlenbergia [20] = test: Post-emergence herbicidal activity against Muhlenbergia frondosa assessed as reduction in dry weight at 25 g a.i./ha measured after 56 days in presence of Agral 90 relative to untreated-control; assay type: functional; parameters: scale not given: the % may be the effect or the level left
Muhlenbergia [21] = test: Post-emergence herbicidal activity against Muhlenbergia frondosa assessed as maize yield at 25 g a.i./ha in presence of Agral 90 (reference value: 9.64 tons/ha); assay type: functional
Elymus repens [22] = test: Post-emergence herbicidal activity against Elymus repens (couch grass) at 42 g/ha relative to control; assay type: functional
Muhlenbergia [23] = test: Post-emergence herbicidal activity against Muhlenbergia frondosa assessed as dry weight at 25 g a.i./ha measured after 56 days in presence of Agral 90 (reference value: 102 g); assay type: functional
Muhlenbergia [24] = test: Post-emergence herbicidal activity against Muhlenbergia frondosa assessed as number of plants at 25 g a.i./ha measured after 56 days in presence of Agral 90 (reference value: 41 /m2); assay type: functional

COc1cc(OC)nc(NC(=O)NS(=O)(=O)c2cc(NC=O)ccc2C(=O)N(C)C)n1 [FORAMSULFURON]
Activity (Muhlenbergia [1]): 76%
Activity (Muhlenbergia [2]): 17%
Activity (Zea mays [3]): 1.1%
Activity (Muhlenbergia [4]): 94%
Activity (Muhlenbergia [5]): 80%
Activity (Muhlenbergia [6]): 89%

CCS(=O)(=O)c1cccnc1S(=O)(=O)NC(=O)Nc1nc(OC)cc(OC)n1 [RIMSULFURON]
Activity (Muhlenbergia [7]): 32%
Activity (Elymus repens [8]): 63%
Activity (Muhlenbergia [9]): 44 /m2
Activity (Muhlenbergia [10]): 14%
Activity (Muhlenbergia [11]): 72 g
Activity (Zea mays [12]): 1.2%
Activity (Muhlenbergia [13]): 11%

COc1cc(OC)nc(NC(=O)NS(=O)(=O)c2ncccc2C(=O)N(C)C)n1 [NICOSULFURON]
Activity (Zea mays [14]): 1.1%
Activity (Muhlenbergia [15]): 49%
Activity (Muhlenbergia [16]): 44%
Activity (Elymus repens [8]): 89%
Activity (Muhlenbergia [17]): 32%
Activity (Muhlenbergia [18]): 22%
Activity (Elymus repens [19]): 97%
Activity (Muhlenbergia [20]): 70%

O=C(Nc1nc(OC(F)F)cc(OC(F)F)n1)NS(=O)(=O)c1ccccc1C(=O)O [PRIMISULFURON]
Activity (Zea mays [14]): 1.2%
Crop_yield (Muhlenbergia [21]): 10.1 tons/ha
Activity (Elymus repens [22]): 94%
Activity (Muhlenbergia [15]): 32%
Activity (Muhlenbergia [23]): 78 g
Activity (Elymus repens [8]): 80%
Activity (Muhlenbergia [24]): 39 /m2
Activity (Muhlenbergia [17]): 12%
